According to article PMC9203742 (Nature Communications, 2022):
Values joined by “and” are separate entries in the source; they are usually repeats but may differ in a detail not shown here. Equal entries are not always repeated.

Assays:
mGlu1(N264H) mutant = target: T1, mGlu1(N264H) mutant (Rattus norvegicus, UniProt P23385, N264H); experiment: Fura-2 Ca2+ imaging in HEK293 cells expressing mGlu1(N264H); type: cell-based
T1 construct: expressed in transfected cells; host or cells: HEK293

[1] = system: Purkinje cells in cerebellar slices from mGlu1^+/+ mice; experiment: chemLTD recording (PF-EPSC) in Purkinje cells of acute cerebellar slices, mGlu1^+/+ mice; type: cell-based, mouse; conditions: for PF-EPSC amplitude relative to time 0: mGlu1+/+, individual cells
Protocol: (§1) Sagittal cerebellar slices were cut with a microslicer (Linear slicer Pro7; DOSAKA EM) in cutting solution buffer and then incubated in ACSF gassed with 5% CO2 and 95% O2 at room temperature.
(§2) Whole-cell patch-clamp recordings were made from visually identified Purkinje cells using a 60× water-immersion objective attached to an upright microscope (BX51WI, Olympus) at room temperature, as described previously. […] Picrotoxin (100 µM; Sigma) was always added to the saline to block inhibitory synaptic transmission.
(§3) To evoke EPSCs derived from CF (CF-EPSCs) and PF (PF-EPSCs) inputs onto Purkinje cells, square pulses were applied through a stimulating electrode placed on the granular layer and the molecular layer (50 µm away from the pial surface), respectively. The selective stimulation of CFs and PFs was confirmed by the paired-pulse depression (PPD) and paired-pulse facilitation (PPF) of EPSC amplitudes at a 50-ms interstimulus interval (ISI), respectively.
(§4) For the LTD sessions, PF-EPSCs were recorded successively at a frequency of 0.1 Hz from Purkinje cells clamped at –80 mV. After a stable PF-EPSC amplitude had been observed for at least 5 min, a conjunctive stimulation that consisted of 30 single PF stimuli together with a 200 ms depolarizing pulse from a holding potential of –60 to +20 mV was applied for LTD induction.
(§5) To chemically induce LTD (chemLTD), 50 µM (S)-3,5-dihydroxyphenylglycine (DHPG) or 1 µM Pd(sulfo-bpy) was applied for 10 min in a current-clamp mode. We often observed a transient decrease in PF-EPSC amplitude after the application of each drug probably because Purkinje cells under current-clamp conditions excite spontaneously to suppress presynaptic function through the retrograde signaling. Access resistances were monitored every 10 s by measuring the peak currents in response to 2 mV, 50-ms hyperpolarizing steps throughout the experiments; the measurements were discarded if the resistance changed by >20% of its original value. The normalized EPSC amplitude on the ordinate represents the EPSC amplitude for the average of six traces for 1 min divided by that of the average of six traces for 1 min immediately before the conjunctive stimulation or the drug application.

[2] = system: Purkinje cells in cerebellar slices from mGlu1^CBC/+ mice; experiment: chemLTD recording (PF-EPSC) in Purkinje cells of acute cerebellar slices, mGlu1^CBC/+ mice; type: cell-based, mouse; conditions: for PF-EPSC amplitude relative to time 0: mGlu1CBC/+, individual cells
Protocol: as §1, §2, §3, §4, §5

[3] = system: GFP-positive Purkinje cells infected with AAV-L7-mGlu1^WT; experiment: chemLTD recording in GFP-positive Purkinje cells, slices infected with AAV-L7-mGlu1^WT; type: cell-based, mouse
[4] = 1 μM Pd(sulfo-bpy) for 10 min, t = 31−35 min

T1 sequence (P23385 19-1199 N264H): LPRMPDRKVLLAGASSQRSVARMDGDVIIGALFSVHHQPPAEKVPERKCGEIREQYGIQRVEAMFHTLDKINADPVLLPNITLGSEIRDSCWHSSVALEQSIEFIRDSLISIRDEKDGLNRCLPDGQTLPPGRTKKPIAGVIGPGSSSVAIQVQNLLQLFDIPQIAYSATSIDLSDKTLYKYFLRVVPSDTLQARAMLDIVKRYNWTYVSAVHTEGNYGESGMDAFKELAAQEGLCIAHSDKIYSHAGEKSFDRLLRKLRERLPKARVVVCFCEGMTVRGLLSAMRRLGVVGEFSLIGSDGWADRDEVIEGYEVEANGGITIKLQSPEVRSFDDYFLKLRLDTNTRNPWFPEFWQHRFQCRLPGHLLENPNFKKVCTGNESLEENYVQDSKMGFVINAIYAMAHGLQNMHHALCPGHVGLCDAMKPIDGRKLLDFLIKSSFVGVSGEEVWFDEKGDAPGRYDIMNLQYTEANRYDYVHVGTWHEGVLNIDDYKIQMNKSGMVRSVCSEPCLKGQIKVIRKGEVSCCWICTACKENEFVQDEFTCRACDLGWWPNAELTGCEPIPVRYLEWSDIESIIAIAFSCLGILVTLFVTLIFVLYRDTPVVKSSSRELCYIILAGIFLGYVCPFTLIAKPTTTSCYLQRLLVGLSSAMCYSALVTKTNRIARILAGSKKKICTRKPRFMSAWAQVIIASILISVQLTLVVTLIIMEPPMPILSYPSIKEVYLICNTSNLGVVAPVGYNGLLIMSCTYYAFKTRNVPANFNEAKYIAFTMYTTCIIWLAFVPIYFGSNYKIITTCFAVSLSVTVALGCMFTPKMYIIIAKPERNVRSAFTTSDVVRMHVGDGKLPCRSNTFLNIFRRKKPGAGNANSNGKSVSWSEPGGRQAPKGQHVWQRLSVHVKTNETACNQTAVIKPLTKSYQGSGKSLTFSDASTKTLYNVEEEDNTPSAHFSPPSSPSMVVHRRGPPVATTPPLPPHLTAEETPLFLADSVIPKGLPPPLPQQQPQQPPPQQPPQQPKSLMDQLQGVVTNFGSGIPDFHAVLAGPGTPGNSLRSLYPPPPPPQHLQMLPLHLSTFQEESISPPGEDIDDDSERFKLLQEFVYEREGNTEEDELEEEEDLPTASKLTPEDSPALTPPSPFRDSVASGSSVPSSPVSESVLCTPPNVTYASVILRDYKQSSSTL

Compound: Cc1ccnc(-c2cc(COCCCS(=O)(=O)[O-])ccn2)c1.[Cl][Pd][Cl].[Na+] [Pd(sulfo-bpy)]
- Ca2+ response, concentration dependence (Fig.4f) (mGlu1(N264H) mutant; 0.01 µM Pd complex): 0.001442
- Ca2+ response, concentration dependence (Fig.4f) (mGlu1(N264H) mutant; 0.03 µM Pd complex): -0.01191
- Ca2+ response, concentration dependence (Fig.4f) (mGlu1(N264H) mutant; 0.1 µM Pd complex): -0.00118
- Ca2+ response, concentration dependence (Fig.4f) (mGlu1(N264H) mutant; 0.3 µM Pd complex): 0.1279
- Ca2+ response, concentration dependence (Fig.4f) (mGlu1(N264H) mutant; 1 µM Pd complex): 0.241
- Ca2+ response, concentration dependence (Fig.4f) (mGlu1(N264H) mutant; 3 µM Pd complex): 0.3078
- Receptor activation (Ca2+ response, Δratio) (mGlu1(N264H) mutant; 3 μM Pd(bpy) derivative): successfully activated
- Ca2+ response, concentration dependence (Fig.4f) (mGlu1(N264H) mutant; 10 µM Pd complex): 0.4466
- Ca2+ response, concentration dependence (Fig.4f) (mGlu1(N264H) mutant; 30 µM Pd complex): 0.3481
- EC50 (mGlu1(N264H) mutant; HEK293 cells, Fura-2, read-out: EC50, Ca2+ response (Δratio)): 0.62 µM
- Ca2+ response to Pd complex, individual cells #1-#20 (Fig.4e) (mGlu1(N264H) mutant; single-cell values): 0.8899 and 0.2578 and 0.9132 and -0.001662 and 0.6326 and 0.4158 and 0.6574 and 1.139 and -0.004669 and -0.01576 and 0.5967 and 0.1275 and -0.001162 and 0.09754 and -0.01851 and 1.312 and 1.093 and 0.7225 and 0.4683 and -0.003462
- chemLTD: normalized PF-EPSC amplitude [1, 4]: 99 ± 4%
- PF-EPSC amplitude relative to time 0 ([1]; time 11 min): 1.305 and 0.7371 and 0.3878 and 0.9487 and 0.6362 and 1.191 and 0.6572 and 0.79
- PF-EPSC amplitude relative to time 0 ([1]; time 12 min): 1.203 and 0.9018 and 0.4484 and 1.074 and 0.6455 and 1.19 and 0.9598 and 0.8251
- PF-EPSC amplitude relative to time 0 ([1]; time 13 min): 1.075 and 1.089 and 0.5282 and 1.162 and 0.6836 and 1.016 and 0.9614 and 0.7972
- PF-EPSC amplitude relative to time 0 ([1]; time 14 min): 1.127 and 1.131 and 0.639 and 1.08 and 0.8118 and 0.8848 and 0.8669 and 0.886
- PF-EPSC amplitude relative to time 0 ([1]; time 15 min): 0.8966 and 0.8928 and 0.5282 and 1.038 and 0.8059 and 0.9429 and 0.8907 and 0.8537
- PF-EPSC amplitude relative to time 0 ([1]; time 16 min): 1.016 and 0.9829 and 0.5855 and 1.115 and 0.7312 and 0.9396 and 0.9005 and 0.8573
- PF-EPSC amplitude relative to time 0 ([1]; time 17 min): 1.118 and 0.828 and 0.627 and 1.083 and 0.6712 and 0.9977 and 1.081 and 0.8535
- PF-EPSC amplitude relative to time 0 ([1]; time 18 min): 1.106 and 0.9208 and 0.5918 and 1.166 and 0.7081 and 1.026 and 1.038 and 0.9503
- PF-EPSC amplitude relative to time 0 ([1]; time 19 min): 1.038 and 0.7989 and 0.7251 and 1.08 and 0.721 and 0.8774 and 0.9331 and 0.9414
- PF-EPSC amplitude relative to time 0 ([1]; time 20 min): 1.053 and 0.8133 and 0.2871 and 1.2251 and 0.7983 and 1.16 and 1.101 and 0.9444
- PF-EPSC amplitude relative to time 0 ([1]; time 21 min): 1.169 and 0.7496 and 1.002 and 1.096 and 0.7681 and 0.9902 and 1.174 and 0.9728
- PF-EPSC amplitude relative to time 0 ([1]; time 22 min): 1.26 and 0.9695 and 1.072 and 1.131 and 0.7557 and 1.075 and 1.029 and 0.936
- PF-EPSC amplitude relative to time 0 ([1]; time 23 min): 1.263 and 0.7868 and 0.9511 and 1.11
- chemLTD: normalized PF-EPSC amplitude [2, 4]: 68 ± 5%
- PF-EPSC amplitude relative to time 0 ([2]; time 11 min): 0.4686 and 0.63 and 0.9877 and 0.796 and 0.8663 and 0.8992 and 0.747 and 0.5935
- PF-EPSC amplitude relative to time 0 ([2]; time 12 min): 0.5628 and 0.6446 and 0.9391 and 0.713 and 0.7198 and 0.9003 and 0.6921 and 0.7152
- PF-EPSC amplitude relative to time 0 ([2]; time 13 min): 0.621 and 0.6377 and 0.8863 and 0.7092 and 0.7439 and 0.8712 and 0.699 and 0.7447
- PF-EPSC amplitude relative to time 0 ([2]; time 14 min): 0.6095 and 0.6409 and 0.8383 and 0.7009 and 0.7151 and 0.836 and 0.6833 and 0.8191
- PF-EPSC amplitude relative to time 0 ([2]; time 15 min): 0.6012 and 0.6741 and 0.9189 and 0.6721 and 0.6888 and 0.8836 and 0.7293 and 0.8645
- PF-EPSC amplitude relative to time 0 ([2]; time 16 min): 0.5331 and 0.6806 and 0.916 and 0.7015 and 0.697 and 0.7978 and 0.7054 and 0.8737
- PF-EPSC amplitude relative to time 0 ([2]; time 17 min): 0.5491 and 0.6542 and 0.8424 and 0.6962 and 0.6712 and 0.7371 and 0.6859 and 0.9232
- PF-EPSC amplitude relative to time 0 ([2]; time 18 min): 0.5728 and 0.6898 and 0.851 and 0.7066 and 0.6167 and 0.9345 and 0.6617 and 0.9653
- PF-EPSC amplitude relative to time 0 ([2]; time 19 min): 0.6147 and 0.6344 and 0.8403 and 0.7161 and 0.6281 and 0.877 and 0.663 and 0.9646
- PF-EPSC amplitude relative to time 0 ([2]; time 20 min): 0.6536 and 0.6214 and 0.844 and 0.7068 and 0.6666 and 0.8676 and 0.6507 and 0.862
- PF-EPSC amplitude relative to time 0 ([2]; time 21 min): 0.6234 and 0.6163 and 0.8161 and 0.7457 and 0.6988 and 0.7776 and 0.5996 and 0.8293
- PF-EPSC amplitude relative to time 0 ([2]; time 22 min): 0.6625 and 0.6523 and 0.8492 and 0.7192 and 0.6537 and 0.814 and 0.6019 and 0.7969
- PF-EPSC amplitude relative to time 0 ([2]; time 23 min): 0.703 and 0.6662 and 0.865 and 0.711
- chemLTD: normalized PF-EPSC amplitude ([3]; 1 μM Pd(sulfo-bpy), t = 31−35 min): 88 ± 7%
- PF-EPSC amplitude normalized to time 0, individual Purkinje cells ([3]; AAV-L7-mGlu1WT, Time 11 min): 0.5479 and 0.8947 and 0.9287 and 0.866 and 0.7568 and 0.3484 and 0.5317
